Source: publication PMC6879560, “Functional annotation of serine hydrolases in the asexual erythrocytic stage of Plasmodium falciparum” (Scientific Reports, 2019)

Biological target: T1, Prodrug activation and resistance esterase (PfPARE) (Plasmodium falciparum, UniProt Q8IBZ2)
T1 construct: gene PF3D7_0709700; native 37 kDa species in saponin-isolated parasite lysate; also confirmed with endogenous C-terminal YFP fusion
Experiment: gel-based competitive ABPP with TAMRA-FP in parasite lysate; identity confirmed by YFP-tag shift
Type: biochemical

T1 sequence (Q8IBZ2 entry or part of it): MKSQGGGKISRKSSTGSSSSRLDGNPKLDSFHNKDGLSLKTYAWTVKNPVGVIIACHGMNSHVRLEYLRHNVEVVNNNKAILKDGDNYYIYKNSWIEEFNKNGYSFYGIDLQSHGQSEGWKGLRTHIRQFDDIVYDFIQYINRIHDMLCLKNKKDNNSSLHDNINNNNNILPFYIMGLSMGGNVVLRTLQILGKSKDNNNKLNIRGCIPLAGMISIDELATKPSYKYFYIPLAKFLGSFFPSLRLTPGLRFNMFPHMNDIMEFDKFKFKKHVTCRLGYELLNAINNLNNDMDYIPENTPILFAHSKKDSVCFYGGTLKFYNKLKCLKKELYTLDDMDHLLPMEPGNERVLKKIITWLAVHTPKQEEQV

- IC50: 2.5 ± 0.6 nM
Compound: O=C(OC(C(F)(F)F)C(F)(F)F)N1CCN(Cc2cccc(Oc3ccccc3)c2)CC1 [JW642]
